Assay results taken from patent publication US20080280810A1, “PEPTIDES HAVING AFFINITY FOR BODY SURFACES” (priority 2006, published 2008).

Assays:
[1] = Co-application of multi-block peptide with semi-permanent dye (Arianor Ebony), color retention; set-up: species or system human; conditions: difference in Delta E between peptide sample and peptide free control after 3 embrocation cycles (about 12 manual shampoos); pH 8.5-9.0; >2 benefit, >4 substantial benefit
Experimental: A 0.5% aqueous solution of Arianor Ebony (Sensient Technologies Corp, Milwaukee, Wis.) containing 3% benzyl alcohol and 0.05% diazolidinyl urea (biocide) was prepared. Dye insolubles were removed by filtration and the pH of the dye solution was adjusted to 8.50-9.0, using ethanolamine.
Approximately 1 mL of the dye solution was added to selected wells of a 24-well plate (Thomson Instrument Co., Oceanside, Calif.; part # 931565). A multi-block peptide (see Table 12) was dissolved in a solution consisting of 3 wt % benzyl alcohol and 95 wt % water to yield a peptide concentration of 2 wt % or approximately 20 mg/mL. The pH was adjusted to 8.5-9.0 using ethanolamine. The peptide solution was then pipetted into test wells containing dye solution in the amount of 1 mL or 0.2 mL respectively. The total volume in each test well was then adjusted to 2 mL where necessary using 3% aqueous benzyl alcohol (pH adjusted to 8.5-9.0 with ethanolamine). Peptide free controls consisted of 1 mL of dye solution diluted to 2 mL with the pH adjusted aqueous benzyl alcohol solution.
Baseline […] readings were made on one inch long tresses (see below) using an X-RITE® SP78™ Sphere Spectrophotometer (X-Rite, Inc., Grandville, Mich.), by placing the hair tress into the photosensor and calculating L*, a* and b* parameters representing the photometer response. All measurements were the average of three individual determinations.
The tresses (potted on one end with resin) of natural white, 85% gray or regular bleached hair (International Hair Importers and Products, Bellerose, N.Y.) were immersed in the peptide/dye solution and the entire well plate was agitated on a VORTEX-GENIE® 2 Mixer (Scientific Industries, Bohemia, N.Y.) at a speed setting of 1 for 30 minutes. The tresses were removed from the wells, rinsed for 30 seconds under flowing deionized water and then air dried.
The following complement of beads was then added to each well containing a hair tress: (8 beads in all; 4 Novagen Coli Rollers Plating Beads—sterilized (EMD Biosciences, San Diego, Calif.; Catalog No. 71013), 2 BioSpec 6.35 mm glass beads (BioSpec Products, Bartlesville, Okla.; Catalog No. 11079635), and 2 BioSpec 3.2 mm Stainless Steel Bead (Catalog No. 11079132ss).
Then 2.5 mL of aqueous 50% Pantene Pro V® shampoo (Proctor & Gamble Co., Cincinnati, Ohio) was pipetted into each well. The plate was placed on a VWR® VX-2500 Multi-tube Vortexer (VWR, West Chester, Pa.) for 5 minutes to simulate shampooing with embrocation. The hair tresses were then rinsed under flowing deionized water and air dried. This cycle was repeated two more times except that the length of time was 10 minutes for both subsequent embrocation cycles. (This treatment was previously determined to simulate approximately 12 manual shampoo cycles.) At the conclusion of the third embrocation cycle L*, a* and b* values were measured and Delta E values (ΔE) were calculated using equation 1 below:
where L*=the lightness variable and a* and b* are the chromaticity coordinates of CIELAB colorspace as defined by the International Commission of Illumination (CIE) (Minolta, Precise Color Communication—Color Control From Feeling to Instrumentation, Minolta Camera Co., 1996).
The Delta E value (ΔE) indicates color retention relative to the non-dyed hair and larger Delta E values indicate better performance. Values listed in the table represent the difference in Delta E values between the peptide-containing sample and the peptide free control. This difference is indicative of color retention after shampoo or water rinse treatments and positive values indicate better performance relative to the peptide free controls (Table 12).

[2] = HPLC analysis of peptide uptake by hair; format: binding, human; conditions: no dye; for % Uptake time = 0 min / % Uptake time = 30 min / % Uptake time = 60 min: 20 mM Tris pH 7.2, 0.15 M NaCl, room temperature, peptide 0.1 mg/mL (IB5A, A5) or 0.05 mg/mL (HC 71, HC 74); for uptake onto hair compared with the same peptide without the charged groups (in words): HC 71 vs IB5, HC 74 vs A5
Experimental: The purpose of this Example was to compare the speed of uptake by measuring the amount of various peptides including peptides of the invention bound to hair at different time points using a high performance liquid chromatography (HPLC) method. The peptides, HC 71, HC 74, IB5 (the hair-binding peptide sequence in HC 71), and A5 (the hair-binding peptide sequence in HC 74), were dissolved in 10 mL of 20 mM Tris, pH 7.2 buffer containing 0.15 M NaCl to give the peptide concentrations shown in Table 11. Natural white hair, 0.54 g, (International Hair Importers & Products Inc., Bellerose, N.Y.) was pre-equilibrated with 10 mL of Tris buffer for 30 min with mixing at room temperature. Then, the buffer was drained from the hair and 10 mL of one of the peptide solutions was added. The hair was incubated with the peptide solution at room temperature without mixing and samples were taken at 0, 30 and 60 min for HPLC analysis. For peptide uptake measurements in the presence of Acid Red 33 dye, the peptide solution was mixed 1:1 with an aqueous solution of the dye (0.5 wt %). Natural white hair (0.65 g) pre-wet with deionized water, was added to the peptide solutions and the solutions were incubated at room temperature without mixing. Samples were taken at time 0, 30, and 60 min for analysis by HPLC. The samples were analyzed using HPLC to determine the concentration of the peptide remaining in solution, and by difference, the amount of peptide taken up by the hair. The HPLC analysis was done using an Agilent liquid chromatograph (Agilent Technologies Inc., Wilmington, Del.) with a 5 μm Zorbax Eclipse XDB-C18 column (Agilent Technologies Inc.). The sample was diluted with distilled water containing 0.1% trifluoroacetic acid (typically a 10-fold dilution), and 5 to 50 μL was injected using a 100 μL injection loop. A solvent gradient elution was used with two solvents: Solvent A, consisting of acetonitrile with 0.1% aqueous trifluoracetic acid, and Solvent B, consisting of water with 0.1% trifluoroacetic acid. The gradient was from 10% acetonitrile to 80% acetonitrile at a rate of 1%/min over a period of 70 min. The flow rate was 1.25 mL/min. Detection was done with a photodiode array detector at 218 nm, 230 nm, and 278 nm.

| Substance | ΔE Retention Ebony Dye with 85% Gray Hair [1] | % Uptake time = 0 min [2] | % Uptake time = 30 min [2] | % Uptake time = 60 min [2] | uptake onto hair compared with the same peptide without the charged groups (in words) [2] |
| --- | --- | --- | --- | --- | --- |
| P-EQISGSLVAAPW-KRKRK-D (PEQISGSLVAAPWKRKRKD; Peptide having affinity for hair) [HC 74] | 7.5 | 0% | 22% | 27% | significantly faster uptake onto hair |
| P-TPPELLHGAPRS-KRKRK-D (PTPPELLHGAPRSKRKRKD; Peptide having affinity for hair) [HC 71] | 2.9 | 0% | 69% | 75% | significantly faster uptake onto hair |
